In PubChem BioAssay AID2060891 (Molecular Pharmacology Branch, DTP, NCI, 2025):

System: K98450-129-R-PDC complex spheroid growth, percent test/control
Experiment: Anticancer human tumor K98450-129-R-PDC patient-derived colon adenocarcinoma cell line growth inhibition [RAS]
Settings: for viability, T/C: stronger effect = lower value
Method in brief: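 Agents were tested in combination matrices in half-log decrements from a top concentration at or near clinical Cmax (10 microM if undetermined). Targets were multi-cell spheroids of tumour lines plus HUVEC and MSC stromal cells.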

[1] = curve of first compound, second compound 0.0316 µM
[2] = curve of first compound, second compound 0.1 µM
[3] = curve of first compound, second compound 0.316 µM
[4] = curve of first compound, second compound 1 µM
[5] = second compound 0.0316 µM, first compound 0.0316 µM
[6] = second compound 0.0316 µM, first compound 0.1 µM
[7] = second compound 0.0316 µM, first compound 0.316 µM
[8] = second compound 0.0316 µM, first compound 1 µM
[9] = second compound 0.0316 µM, first compound 3.16 µM
[10] = second compound 0.0316 µM, first compound 10 µM
[11] = second compound 0.1 µM, first compound 0.0316 µM
[12] = second compound 0.1 µM, first compound 0.1 µM
[13] = second compound 0.1 µM, first compound 0.316 µM
[14] = second compound 0.1 µM, first compound 1 µM
[15] = second compound 0.1 µM, first compound 3.16 µM
[16] = second compound 0.1 µM, first compound 10 µM
[17] = second compound 0.316 µM, first compound 0.0316 µM
[18] = second compound 0.316 µM, first compound 0.1 µM
[19] = second compound 0.316 µM, first compound 0.316 µM
[20] = second compound 0.316 µM, first compound 1 µM
[21] = second compound 0.316 µM, first compound 3.16 µM
[22] = second compound 0.316 µM, first compound 10 µM
[23] = second compound 1 µM, first compound 0.0316 µM
[24] = second compound 1 µM, first compound 0.1 µM
[25] = second compound 1 µM, first compound 0.316 µM
[26] = second compound 1 µM, first compound 1 µM
[27] = second compound 1 µM, first compound 3.16 µM
[28] = second compound 1 µM, first compound 10 µM
[29] = curve of first compound, second compound 3.16 µM
[30] = curve of first compound, second compound 10 µM
[31] = second compound 3.16 µM, first compound 0.0316 µM
[32] = second compound 3.16 µM, first compound 0.1 µM
[33] = second compound 3.16 µM, first compound 0.316 µM
[34] = second compound 3.16 µM, first compound 1 µM
[35] = second compound 3.16 µM, first compound 3.16 µM
[36] = second compound 3.16 µM, first compound 10 µM
[37] = second compound 10 µM, first compound 0.0316 µM
[38] = second compound 10 µM, first compound 0.1 µM
[39] = second compound 10 µM, first compound 0.316 µM
[40] = second compound 10 µM, first compound 1 µM
[41] = second compound 10 µM, first compound 3.16 µM
[42] = second compound 10 µM, first compound 10 µM
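Further: spheroids exposed to agents for seven days before the viability readout.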
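Wherever viability, T/C is given: luminescence used as a proxy for viable cell amount.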

CC(Nc1ccc2c(c1)OCCn1cc(N3C(=O)OCC3C(F)F)nc1-2)C(N)=O (stereo not given) + C=CC(=O)N1CCN(c2nc(OCC3CCCN3C)nc3c(F)c(-c4nc(N)cc(C)c4C(F)(F)F)c(Cl)cc23)C(C)C1
IC50 (curve of first compound, second compound 0.00316 µM): > 10 µM
IC50 (curve of first compound, second compound 0.01 µM): > 10 µM
IC50 [1]: 4.56 µM
IC50 [2]: 0.0738 µM
IC50 [3]: < 0.0316 µM
IC50 [4]: < 0.0316 µM
viability, T/C (second compound 0.00316 µM, first compound 0.0316 µM): 92.5%
viability, T/C (second compound 0.00316 µM, first compound 0.1 µM): 90.4%
viability, T/C (second compound 0.00316 µM, first compound 0.316 µM): 81.7%
viability, T/C (second compound 0.00316 µM, first compound 1 µM): 83.1%
viability, T/C (second compound 0.00316 µM, first compound 3.16 µM): 70%
viability, T/C (second compound 0.00316 µM, first compound 10 µM): 64.3%
viability, T/C (second compound 0.01 µM, first compound 0.0316 µM): 85.4%
viability, T/C (second compound 0.01 µM, first compound 0.1 µM): 81.2%
viability, T/C (second compound 0.01 µM, first compound 0.316 µM): 78.5%
viability, T/C (second compound 0.01 µM, first compound 1 µM): 65.1%
viability, T/C (second compound 0.01 µM, first compound 3.16 µM): 59.8%
viability, T/C (second compound 0.01 µM, first compound 10 µM): 53.8%
viability, T/C [5]: 69.5%
viability, T/C [6]: 70.3%
viability, T/C [7]: 62.7%
viability, T/C [8]: 51.4%
viability, T/C [9]: 53.7%
viability, T/C [10]: 46.9%
viability, T/C [11]: 53.9%
viability, T/C [12]: 47.4%
viability, T/C [13]: 45%
viability, T/C [14]: 39%
viability, T/C [15]: 32.5%
viability, T/C [16]: 28.8%
viability, T/C [17]: 35.4%
viability, T/C [18]: 32.5%
viability, T/C [19]: 31.6%
viability, T/C [20]: 22.4%
viability, T/C [21]: 22.9%
viability, T/C [22]: 16.6%
viability, T/C [23]: 28.4%
viability, T/C [24]: 28.2%
viability, T/C [25]: 23.5%
viability, T/C [26]: 18%
viability, T/C [27]: 15.3%
viability, T/C [28]: 14.5%

CC(Nc1ccc2c(c1)OCCn1cc(N3C(=O)OCC3C(F)F)nc1-2)C(N)=O (stereo not given) + C#Cc1c(F)ccc2cc(O)cc(-c3ncc4c(N5CC6CCC(C5)N6)nc(OCC56CCCN5CC(F)C6)nc4c3F)c12
IC50 [1]: > 10 µM
IC50 [2]: > 10 µM
IC50 [3]: > 10 µM
IC50 [4]: > 10 µM
IC50 [29]: > 10 µM
IC50 [30]: > 10 µM
viability, T/C [5]: 105%
viability, T/C [6]: 94.6%
viability, T/C [7]: 95.1%
viability, T/C [8]: 94.4%
viability, T/C [9]: 83.6%
viability, T/C [10]: 73.8%
viability, T/C [11]: 102%
viability, T/C [12]: 98.1%
viability, T/C [13]: 88.3%
viability, T/C [14]: 95.1%
viability, T/C [15]: 83%
viability, T/C [16]: 70.4%
viability, T/C [17]: 114%
viability, T/C [18]: 98.1%
viability, T/C [19]: 95.7%
viability, T/C [20]: 91.1%
viability, T/C [21]: 84.3%
viability, T/C [22]: 72.1%
viability, T/C [23]: 102%
viability, T/C [24]: 103%
viability, T/C [25]: 94.8%
viability, T/C [26]: 84%
viability, T/C [27]: 81.8%
viability, T/C [28]: 64.3%
viability, T/C [31]: 89.8%
viability, T/C [32]: 93.3%
viability, T/C [33]: 88.4%
viability, T/C [34]: 74.2%
viability, T/C [35]: 72.5%
viability, T/C [36]: 68.4%
viability, T/C [37]: 80.5%
viability, T/C [38]: 83.5%
viability, T/C [39]: 82.2%
viability, T/C [40]: 68.1%
viability, T/C [41]: 64.8%
viability, T/C [42]: 57.3%

NC1c2ccccc2OC12CCN(c1cnc3c(N4CCCc5ncccc54)n[nH]c3n1)CC2 (stereo not given)
viability, T/C (compound 0.0316 µM): 90.2% [middle of 4 runs]
viability, T/C (compound 0.1 µM): 67.2% [middle of 4 runs]
viability, T/C (compound 0.316 µM): 39.9% [middle of 4 runs]
viability, T/C (compound 1 µM): 25.4% [middle of 4 runs]
viability, T/C (compound 3.16 µM): 19.4% [middle of 4 runs]
viability, T/C (compound 10 µM): 25% [middle of 4 runs]
IC50 (curve of compound): 193 nM [middle of 4 runs]

C#Cc1c(F)ccc2cc(O)cc(-c3ncc4c(N5CC6CCC(C5)N6)nc(OCC56CCCN5CC(F)C6)nc4c3F)c12 (stereo not given)
viability, T/C (compound 0.0316 µM): 106% [middle of 8 runs]
viability, T/C (compound 0.1 µM): 105% [middle of 7 runs]
viability, T/C (compound 0.316 µM): 105% [middle of 8 runs]
viability, T/C (compound 1 µM): 102% [middle of 8 runs]
viability, T/C (compound 3.16 µM): 102% [middle of 8 runs]
viability, T/C (compound 10 µM): 95.1% [middle of 8 runs]
IC50 (compound alone, run of 06/10/2024): > 10 µM

CC(C)NCC(C(=O)N1CCN(c2ncnc3c2C(C)CC3O)CC1)c1ccc(Cl)cc1 (stereo not given) + C#Cc1c(F)ccc2cc(O)cc(-c3ncc4c(N5CC6CCC(C5)N6)nc(OCC56CCCN5CC(F)C6)nc4c3F)c12
IC50 [1]: > 10 µM
IC50 [2]: > 10 µM
IC50 [3]: > 10 µM
IC50 [4]: > 10 µM
IC50 [29]: > 10 µM
IC50 [30]: > 10 µM
viability, T/C [5]: 110%
viability, T/C [6]: 106%
viability, T/C [7]: 92.9%
viability, T/C [8]: 99.2%
viability, T/C [9]: 104%
viability, T/C [10]: 96.7%
viability, T/C [11]: 110%
viability, T/C [12]: 96.9%
viability, T/C [13]: 106%
viability, T/C [14]: 98%
viability, T/C [15]: 113%
viability, T/C [16]: 103%
viability, T/C [17]: 105%
viability, T/C [18]: 96.1%
viability, T/C [19]: 110%
viability, T/C [20]: 97.3%
viability, T/C [21]: 104%
viability, T/C [22]: 98.6%
viability, T/C [23]: 99.5%
viability, T/C [24]: 96.8%
viability, T/C [25]: 96.1%
viability, T/C [26]: 95.7%
viability, T/C [27]: 104%
viability, T/C [28]: 99.2%
viability, T/C [31]: 95.7%
viability, T/C [32]: 86.5%
viability, T/C [33]: 97.3%
viability, T/C [34]: 93.8%
viability, T/C [35]: 98.7%
viability, T/C [36]: 88.2%
viability, T/C [37]: 83.9%
viability, T/C [38]: 82.6%
viability, T/C [39]: 81.9%
viability, T/C [40]: 85.9%
viability, T/C [41]: 91.5%
viability, T/C [42]: 81.9%
